28 compounds from patent US11427548B2 (Arvinas Operations, Inc., priority 2015, dated 2022) can be followed below.

Where two headings read alike, the source gives them in different places. Where only a bound is given, the exact number is not on record here.

This test addresses T1, Androgen Receptor (Homo sapiens, UniProt P10275).
T1 construct: endogenous in cells; host or cells: VCaP cells
T1 sequence (P10275 1-920): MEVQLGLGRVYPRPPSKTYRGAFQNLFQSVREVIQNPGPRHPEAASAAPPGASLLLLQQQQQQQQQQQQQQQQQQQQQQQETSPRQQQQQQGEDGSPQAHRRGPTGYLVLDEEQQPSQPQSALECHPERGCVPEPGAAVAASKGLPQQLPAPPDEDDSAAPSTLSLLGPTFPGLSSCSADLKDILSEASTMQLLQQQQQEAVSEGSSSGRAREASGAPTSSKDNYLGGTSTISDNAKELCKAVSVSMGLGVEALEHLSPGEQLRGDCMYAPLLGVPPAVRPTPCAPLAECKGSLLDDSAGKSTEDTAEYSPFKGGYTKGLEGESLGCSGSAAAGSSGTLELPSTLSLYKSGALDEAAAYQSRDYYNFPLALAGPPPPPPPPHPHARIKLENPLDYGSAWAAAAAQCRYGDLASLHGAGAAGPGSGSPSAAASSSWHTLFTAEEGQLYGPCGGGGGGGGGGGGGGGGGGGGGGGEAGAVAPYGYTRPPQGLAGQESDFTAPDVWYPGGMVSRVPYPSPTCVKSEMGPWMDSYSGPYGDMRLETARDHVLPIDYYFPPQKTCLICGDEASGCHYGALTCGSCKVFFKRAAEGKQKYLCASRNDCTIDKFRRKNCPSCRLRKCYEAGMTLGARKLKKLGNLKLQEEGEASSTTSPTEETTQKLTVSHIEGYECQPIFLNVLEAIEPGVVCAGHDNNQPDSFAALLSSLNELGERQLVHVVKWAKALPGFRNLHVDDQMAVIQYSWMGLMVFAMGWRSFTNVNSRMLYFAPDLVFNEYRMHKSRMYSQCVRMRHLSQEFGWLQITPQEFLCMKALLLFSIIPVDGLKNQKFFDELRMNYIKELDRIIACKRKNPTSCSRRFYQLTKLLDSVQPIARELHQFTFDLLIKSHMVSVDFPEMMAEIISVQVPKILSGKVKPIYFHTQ
Nature of the test: Androgen Receptor ELISA assay (PathScan AR ELISA) in VCaP cells: AR degradation, Dmax and DC50. In kind it is cell-based. In outline:
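VCaP cells, 30,000/well, grown ≥3 days in phenol red-free RPMI with 5% charcoal-stripped FBS; compound added in 0.1% DMSO with 0.1 nM R1881, 7 half-log doses, 24 h. Lysate AR quantified by PathScan sandwich ELISA, HRP/TMB read at 450 nm, giving DC50 and Dmax.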
Background: ELISA stands for enzyme-linked immunosorbent assay.

The mark [1] stands for this setting: read-out: VCaP DC50; VCaP cells; Table 34.
Setting [2] is: VCaP cells; Table 34; read-out: VCaP DC50.
Where [3] appears, read: VCaP, VCaP cells; Table 34; read-out: VCaP Dmax (%).

One may read the Dmax as the greatest extent of degradation seen. A word on the DC50: it is the concentration giving 50% degradation.

Consider `Cc1ncsc1-c1ccc(CNC(=O)[C@@H]2C[C@@H](O)CN2C(=O)[C@@H](NC(=O)COCCC2CCN(CCOc3ccc(N4C(=S)N(c5ccc(C#N)c(C(F)(F)F)c5)C(=O)C4(C)C)cc3)CC2)C(C)(C)C)cc1` [Example 318], for which, under “VCaP, read-out: VCaP Dmax (%)”, the Dmax lay in the range of 26 to 50%. For the same compound, under setting [1], the DC50 lay in the range of 51 to 500 nM.

With `Cc1ncsc1-c1ccc(CNC(=O)[C@@H]2C[C@@H](O)CN2C(=O)[C@@H](NC(=O)COCC#CCOCCOc2ccc(N3C(=S)N(c4ccc(C#N)c(C(F)(F)F)c4)C(=O)C3(C)C)cc2)C(C)(C)C)cc1` [Example 319], under “VCaP, read-out: VCaP Dmax (%)”, the Dmax fell in the range of 26 to 50%. Further, under setting [1], the half-maximal degradation concentration (DC50) is below 50 nM.

Take `Cc1ncsc1-c1ccc(CNC(=O)[C@@H]2C[C@@H](O)CN2C(=O)[C@@H](NC(=O)COCCCCOCCCCOc2cccc(N3C(=S)N(c4ccc(C#N)c(C(F)(F)F)c4)C(=O)C3(C)C)c2)C(C)(C)C)cc1` [Example 320]: the Dmax (VCaP, read-out: VCaP Dmax (%)) fell in the range of 26 to 50%. Under setting [1], the DC50 is below 50 nM.

With `Cc1ncsc1-c1ccc(CNC(=O)[C@@H]2C[C@@H](O)CN2C(=O)[C@@H](NC(=O)COCCCOCCCCOc2cccc(N3C(=S)N(c4ccc(C#N)c(C(F)(F)F)c4)C(=O)C3(C)C)c2)C(C)(C)C)cc1` [Example 321], under “VCaP, read-out: VCaP Dmax (%)”, the Dmax is 26 to 50%. Further, the DC50 under setting [1] is below 50 nM.

Take `COc1cc(N2C(=O)C(C)(C)N(c3ccc(OCCOc4ccc(OCC(=O)N[C@H](C(=O)N5C[C@H](O)C[C@H]5C(=O)NCc5ccc(-c6scnc6C)cc5)C(C)(C)C)cc4)c(F)c3)C2=S)ccc1C#N` [Example 323]: the DC50 under setting [2] was below 50 nM. Further, the Dmax under setting [3] fell in the range of 51 to 70%.

For `Cc1ncsc1-c1ccc(CNC(=O)[C@@H]2C[C@@H](O)CN2C(=O)[C@@H](NC(=O)CCN2CCC(OCCOc3ccc(N4C(=S)N(c5ccc(C#N)c(C(F)(F)F)c5)C(=O)C4(C)C)cc3)CC2)C(C)(C)C)cc1` [Example 324], for the setting “VCaP, read-out: VCaP Dmax (%)”, the Dmax was 26 to 50%. For the same compound, the DC50 under setting [1] was in the range of 51 to 500 nM.

On to `Cc1ncsc1-c1ccc(CNC(=O)[C@@H]2C[C@@H](O)CN2C(=O)[C@@H](NC(=O)COC/C=C\COCCCCOc2ccc(N3C(=S)N(c4ccc(C#N)c(C(F)(F)F)c4)C(=O)C3(C)C)cc2)C(C)(C)C)cc1` [Example 325], for which the greatest degradation seen (Dmax) (VCaP, read-out: VCaP Dmax (%)) lay in the range of 26 to 50%. Also, under setting [1], the 50% degradation concentration (DC50) was below 50 nM.

Turning to `Cc1ncsc1-c1ccc(CNC(=O)[C@@H]2C[C@@H](O)CN2C(=O)[C@H](C(C)C)N2CC(OCCCOCCCOc3ccc(N4C(=S)N(c5ccc(C#N)c(C(F)(F)F)c5)C(=O)C4(C)C)cc3)=CC2=O)cc1` [Example 329], the Dmax (VCaP, read-out: VCaP Dmax (%)) fell in the range of 26 to 50%. Moreover, the DC50 under setting [1] is below 50 nM.

Take `Cc1ncsc1-c1ccc(CNC(=O)[C@@H]2C[C@@H](O)CN2C(=O)[C@@H](NC(=O)COCCCOCCCCNc2ccc(N3C(=S)N(c4ccc(C#N)c(C(F)(F)F)c4)C(=O)C3(C)C)cc2)C(C)(C)C)cc1` [Example 333]: under “VCaP, read-out: VCaP Dmax (%)”, the Dmax was in the range of 51 to 70%. Besides, the DC50 under setting [1] was below 50 nM.

Consider `CC(C)(C)[C@H](NC(=O)COCCCOCCCCOc1ccc(N2C(=S)N(c3ccc(C#N)c(Br)c3)C(=O)C2(C)C)cc1F)C(=O)N1C[C@H](O)C[C@H]1C(=O)NCc1ccc(-c2cnco2)cc1` [Example 334], for which the DC50 under setting [2] is below 50 nM. Besides, the Dmax under setting [3] is above 71%.

For the compound `CC(C)(C)[C@H](NC(=O)COCCCOCCCCOc1ccc(N2C(=S)N(c3ccc(C#N)c(Cl)c3)C(=O)C2(C)C)c(F)c1)C(=O)N1C[C@H](O)C[C@H]1C(=O)NCc1ccc(-c2cnco2)cc1` [Example 336], the Dmax (VCaP, read-out: VCaP Dmax (%)) was above 71%. In addition, the DC50 under setting [1] is below 50 nM.

For `CC(C)(C)[C@H](NC(=O)COCCCOCCCCOc1ccc(N2C(=S)N(c3ccc(C#N)c(Cl)c3)C(=O)C2(C)C)cc1)C(=O)N1C[C@H](O)C[C@H]1C(=O)NCc1ccc(-c2cnco2)cc1` [Example 337], under “VCaP, read-out: VCaP Dmax (%)”, the Dmax is above 71%. Also, the DC50 under setting [1] is below 50 nM.

In the case of `Cc1ncoc1-c1ccc(CNC(=O)[C@@H]2C[C@@H](O)CN2C(=O)[C@@H](NC(=O)COCCCOCCCCOc2ccc(N3C(=S)N(c4cnc(C#N)c(Cl)c4)C(=O)C3(C)C)cc2)C(C)(C)C)cc1` [Example 338], the DC50 under setting [2] is below 50 nM. The Dmax under setting [3] was in the range of 51 to 70%.

For `CC(C)(C)[C@H](NC(=O)COCCCCCOCCn1cc(C(=O)N[C@H]2C(C)(C)[C@H](Oc3ccc(C#N)c(Cl)c3)C2(C)C)cn1)C(=O)N1C[C@H](O)C[C@H]1C(=O)NCc1ccc(-c2cncs2)cc1` [Example 339], the DC50 under setting [2] is below 50 nM. In addition, the Dmax under setting [3] was above 71%.

With `CC(C)(C)[C@H](NC(=O)COCCCOCCCCCOc1ccc(N2C(=S)N(c3ccc(C#N)c(Cl)c3)C(=O)C2(C)C)cc1)C(=O)N1C[C@H](O)C[C@H]1C(=O)NCc1ccc(-c2cnco2)cc1` [Example 345], the Dmax (VCaP, read-out: VCaP Dmax (%)) lay in the range of 51 to 70%. Further, the DC50 under setting [1] is below 50 nM.

Consider `CC(C)(C)[C@H](NC(=O)COCCCCOCCCCOc1ccc(N2C(=S)N(c3ccc(C#N)c(Cl)c3)C(=O)C2(C)C)cc1)C(=O)N1C[C@H](O)C[C@H]1C(=O)NCc1ccc(-c2cnco2)cc1` [Example 346], for which the Dmax (VCaP, read-out: VCaP Dmax (%)) lay within 51 to 70%. In addition, under setting [1], the DC50 was below 50 nM.

Regarding `CC(C)(C)[C@H](NC(=O)COCCCCOCCn1cc(C(=O)N[C@H]2C(C)(C)[C@H](Oc3ccc(C#N)c(Cl)c3)C2(C)C)cn1)C(=O)N1C[C@H](O)C[C@H]1C(=O)NCc1ccc(-c2cncs2)cc1` [Example 347], the DC50 under setting [2] is below 50 nM. The Dmax under setting [3] was 51 to 70%.

On to `Cc1ncsc1-c1ccc([C@H](C)NC(=O)[C@@H]2C[C@@H](O)CN2C(=O)[C@@H](NC(=O)COCCCOCCCCOc2ccc(N3C(=S)N(c4cnc(C#N)c(C(F)(F)F)c4)C(=O)C3(C)C)cc2)C(C)(C)C)cc1` [Example 365], for which, under setting [2], the DC50 is below 50 nM. Moreover, the Dmax under setting [3] was above 71%.

As to `Cc1ncsc1-c1ccc(CNC(=O)[C@@H]2C[C@@H](O)CN2C(=O)[C@H](C)NC(=O)COCCCOCCCCOc2ccc(N3C(=S)N(c4ccc(C#N)c(C(F)(F)F)c4)C(=O)C3(C)C)cc2)cc1` [Example 366], the DC50 under setting [1] was below 50 nM.

As for `CC(C)(C)[C@H](NC(=O)COCCCOCCCCOc1ccc(N2C(=S)N(c3ccc(C#N)c(C(F)(F)F)c3)C(=O)C2(C)C)cc1)C(=O)N1C[C@H](O)C[C@H]1C(=O)NCc1ccc(-c2cnco2)c(F)c1` [Example 367], the Dmax (VCaP, read-out: VCaP Dmax (%)) fell in the range of 51 to 70%. Moreover, the DC50 under setting [1] is below 50 nM.

`CC(C)(C)[C@H](NC(=O)COCCCOCCCCOc1ccc(N2C(=S)N(c3cc(Cl)c(C#N)cc3F)C(=O)C2(C)C)cc1F)C(=O)N1C[C@H](O)C[C@H]1C(=O)NCc1ccc(-c2cnco2)cc1` [Example 368]: the DC50 under setting [1] was below 50 nM.

Turning to `CC(C)(C)[C@H](NC(=O)COCCCOCCCCOc1ccc(N2C(=S)N(c3cc(Cl)c(C#N)cc3F)C(=O)C2(C)C)cc1)C(=O)N1C[C@H](O)C[C@H]1C(=O)NCc1ccc(-c2cnco2)cc1` [Example 369], under setting [1], the DC50 was below 50 nM.

In the case of `CC(C)(C)[C@H](NC(=O)COCCCOCCCCOc1ccc(N2C(=S)N(c3ccc(C#N)c(C(F)(F)F)c3)C(=O)C2(C)C)cc1)C(=O)N1C[C@H](O)C[C@H]1C(=O)NCc1ccc(-c2ocnc2F)cc1` [Example 370], where the note is “VCaP, read-out: VCaP Dmax (%)”, the Dmax lay within 26 to 50%. In addition, the DC50 under setting [1] is below 50 nM.

With `CC(C)(C)[C@H](NC(=O)COc1ccc(OCCOc2ccc(N3C(=S)N(c4cnc(C#N)c(C(F)(F)F)c4)C(=O)C3(C)C)cc2)cc1)C(=O)N1C[C@H](O)C[C@H]1C(=O)NCc1ccc(-c2cnco2)cc1` [Example 371], under setting [2], the DC50 was below 50 nM. The Dmax under setting [3] is above 71%.

For the compound `Cc1ncsc1-c1ccc([C@H](C)NC(=O)[C@@H]2C[C@@H](O)CN2C(=O)[C@@H](NC(=O)COCCCCOCCCCOc2ccc(N3C(=S)N(c4ccc(C#N)c(C(F)(F)F)c4)C(=O)C3(C)C)cc2)C(C)(C)C)cc1` [Example 373], the Dmax (VCaP, read-out: VCaP Dmax (%)) was 51 to 70%. Besides, the DC50 under setting [1] was below 50 nM.

Regarding `Cc1ncsc1-c1ccc(CNC(=O)[C@@H]2C[C@@H](O)CN2C(=O)[C@@H](NC(=O)C(C)Oc2ccc(OCCOc3ccc(N4C(=S)N(c5ccc(C#N)c(C(F)(F)F)c5)C(=O)C4(C)C)cc3)cc2)C(C)(C)C)cc1` (some centres unmarked) [Example 374], under “VCaP, read-out: VCaP Dmax (%)”, the Dmax was in the range of 26 to 50%. Besides, under setting [1], the DC50 was below 50 nM.

Take `CC(C)(C)[C@H](NC(=O)COCCCOCCCCOc1ccc(N2C(=S)N(c3ccc(C#N)c(C(F)(F)F)c3)C(=O)C2(C)C)cc1)C(=O)N1C[C@H](O)C[C@H]1C(=O)NCc1ccc(-c2cn[nH]c2)cc1` [Example 376]: for the setting “VCaP, read-out: VCaP Dmax (%)”, the maximal degradation (Dmax) lay within 51 to 70%. Also, the DC50 under setting [1] is below 50 nM.

On to `Cc1n[nH]cc1-c1ccc(CNC(=O)[C@@H]2C[C@@H](O)CN2C(=O)[C@@H](NC(=O)COCCCOCCCCOc2ccc(N3C(=S)N(c4ccc(C#N)c(C(F)(F)F)c4)C(=O)C3(C)C)cc2)C(C)(C)C)cc1` [Example 377], for which the Dmax (VCaP, read-out: VCaP Dmax (%)) lay in the range of 51 to 70%. Moreover, the DC50 under setting [1] lay within 51 to 500 nM.
